According to the Kinase Knowledgebase extract (Sharma et al. 2016):
pIC50: −log10 of the molar value.

These compounds were tested against PIK3CA (human) (UniProt P42336) (assay: Assessment of PI3KCA Kinase Activity).
Sequence of PIK3CA (human) (P42336 whole entry, looked up): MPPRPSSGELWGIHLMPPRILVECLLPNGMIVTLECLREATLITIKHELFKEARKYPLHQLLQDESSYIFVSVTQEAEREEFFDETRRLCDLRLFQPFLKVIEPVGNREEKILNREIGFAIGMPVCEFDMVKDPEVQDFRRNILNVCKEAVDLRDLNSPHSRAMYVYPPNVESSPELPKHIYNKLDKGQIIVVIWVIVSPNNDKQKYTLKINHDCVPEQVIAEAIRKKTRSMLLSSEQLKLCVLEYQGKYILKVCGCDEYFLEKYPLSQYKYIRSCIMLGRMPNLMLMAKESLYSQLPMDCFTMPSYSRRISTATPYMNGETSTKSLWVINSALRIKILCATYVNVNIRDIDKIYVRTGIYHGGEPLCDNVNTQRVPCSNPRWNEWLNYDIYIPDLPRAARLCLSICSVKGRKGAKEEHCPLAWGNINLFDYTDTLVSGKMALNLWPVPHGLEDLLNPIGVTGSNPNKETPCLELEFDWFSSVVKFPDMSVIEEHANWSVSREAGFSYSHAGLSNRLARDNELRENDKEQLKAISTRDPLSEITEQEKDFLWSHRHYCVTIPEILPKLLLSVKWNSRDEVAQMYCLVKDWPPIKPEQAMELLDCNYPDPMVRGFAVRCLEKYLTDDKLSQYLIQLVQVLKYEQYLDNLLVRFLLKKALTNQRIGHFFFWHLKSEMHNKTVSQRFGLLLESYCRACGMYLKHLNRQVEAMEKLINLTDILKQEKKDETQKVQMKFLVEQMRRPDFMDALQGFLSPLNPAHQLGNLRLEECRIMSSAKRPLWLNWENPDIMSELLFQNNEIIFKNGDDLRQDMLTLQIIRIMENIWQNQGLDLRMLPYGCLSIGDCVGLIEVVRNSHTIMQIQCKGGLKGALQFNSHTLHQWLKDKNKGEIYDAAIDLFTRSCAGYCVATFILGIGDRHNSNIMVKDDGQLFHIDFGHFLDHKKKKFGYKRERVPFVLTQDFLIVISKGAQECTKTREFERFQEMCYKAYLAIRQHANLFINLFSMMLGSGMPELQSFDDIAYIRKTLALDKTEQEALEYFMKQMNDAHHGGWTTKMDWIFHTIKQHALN
Compound `Nc1nc2c(-c3cc(-c4ccc(Cl)cc4Cl)c(-c4ncc[nH]4)s3)ncnc2s1` has a pIC50 greater than 7.00. With `Cc1nn2ccccc2c1-c1nc(-c2cccc(F)c2F)c(-c2nc[nH]n2)s1` the pIC50 was greater than 7.00. In the case of `Cc1nn2ccccc2c1-c1nc(Cc2ccccc2)c(-c2nnc[nH]2)s1`, the pIC50 was 6.00 to 7.00. In the case of `CCOc1nc(-c2ccnc(NC(=O)COC)c2)sc1-c1nnc[nH]1`, the pIC50 was 6.00 to 7.00. In the case of `Cc1nn2ccccc2c1-c1nc(-c2ccsc2)c(-c2nnc[nH]2)s1`, the pIC50 was greater than 7.00. For `COc1ccc(-c2nc(-c3c(C)nn4ccccc34)sc2-c2nc[nH]n2)c(OC)c1`, the pIC50 was greater than 7.00. Work on `CNc1cc(-c2sc(-c3nnc[nH]3)c(-c3ccc(Cl)cc3Cl)c2C#N)ccn1` yielded a pIC50 greater than 7.00. With `N#Cc1c(-c2ccnc(F)c2)sc(C(N)=O)c1-c1ccc(Cl)cc1Cl` the pIC50 was 6.00 to 7.00. `CC(=O)N1CCC(Oc2ccn3nc(C)c(-c4nc(-c5ccccc5)c(-c5nc[nH]n5)s4)c3c2)CC1` was tested, and the pIC50 was greater than 7.00. `CC(=O)NCCOc1ccn2nc(C)c(-c3nc(-c4ccccc4)c(-c4nc[nH]n4)s3)c2c1` showed a pIC50 greater than 7.00. Work on `Cc1ccc(-c2nc(-c3c(C)nn4ccccc34)sc2-c2nc[nH]n2)o1` yielded a pIC50 greater than 7.00. In the case of `CCNc1nccc(-c2sc(-c3nnc[nH]3)c(-c3ccc(Cl)cc3Cl)c2C#N)n1`, the pIC50 was greater than 7.00. Compound `CCC(=O)Nc1cc(-c2nc(-c3ccc(Cl)cc3Cl)c(-c3ncc[nH]3)s2)ccn1` has a pIC50 greater than 7.00. `CC(=O)Nc1cc(-c2nc(-c3ccc(Cl)cc3Cl)c(-c3nc(C)c[nH]3)s2)ccn1` gave a pIC50 greater than 7.00. For `Cc1nc2ccc(C=O)cn2c1-c1nc(-c2ccccc2)c(-c2nnc[nH]2)s1`, the pIC50 was greater than 7.00. Work on `N#Cc1c(-c2ccnc(N)c2)sc(-c2cnn[nH]2)c1-c1ccc(Cl)cc1Cl` yielded a pIC50 of 6.00 to 7.00. For `Clc1ccc(-c2cc(-c3ccnc4[nH]cnc34)sc2-c2ncc[nH]2)c(Cl)c1`, the pIC50 was greater than 7.00. With `CCOc1nc(-c2ccnc(NC(=O)c3ccc(OC)cc3)c2)sc1-c1nnc[nH]1` the pIC50 was 6.00 to 7.00. `CCOc1cccc(F)c1-c1nc(-c2c(C)nn3ccccc23)sc1-c1nc[nH]n1` showed a pIC50 of 6.00 to 7.00. `COc1cccc(F)c1-c1nc(-c2c(C)nn3ccccc23)sc1-c1nc[nH]n1` was tested, and the pIC50 was greater than 7.00. `COC(=O)c1ccc(-c2nc(-c3ccnc(NC(C)=O)c3)sc2-c2ncc[nH]2)cc1` was tested, and the pIC50 was 6.00 to 7.00. `N#Cc1c(-c2ccnc(N)n2)sc(-c2nnc[nH]2)c1-c1ccc(Cl)cc1Cl` gave a pIC50 greater than 7.00. For `Cc1nn2ccsc2c1-c1nc(-c2ccccc2)c(-c2cocn2)s1`, the pIC50 was 6.00 to 7.00. With `N#Cc1c(-c2ccnc(NC(=O)c3ccncc3)c2)sc(-c2nnc[nH]2)c1-c1ccc(Cl)cc1Cl` the pIC50 was 6.00 to 7.00. `Cc1nn2ccccc2c1-c1nc(-c2cccc3ncccc23)c(-c2nc[nH]n2)s1` was tested, and the pIC50 was 6.00 to 7.00. `CNC(=O)Nc1cc(-c2sc(-c3ncc[nH]3)c(-c3ccc(Cl)cc3Cl)c2C#N)ccn1` gave a pIC50 greater than 7.00. `CCC(=O)Nc1cc(-c2sc(-c3nnc[nH]3)c(-c3ccc(Cl)cc3Cl)c2C#N)ccn1` showed a pIC50 greater than 7.00. `C[C@H](O)C(=O)Nc1cc(-c2sc(-c3nnc[nH]3)c(-c3ccc(Cl)cc3Cl)c2C#N)ccn1` showed a pIC50 of 6.00 to 7.00. `Cc1nn2ccccc2c1-c1nc(-c2cccs2)c(-c2nc[nH]n2)s1` showed a pIC50 greater than 7.00. In the case of `CC(=O)Nc1cc(-c2nc(-c3cc(Cl)ccc3Cl)c(-c3ncc[nH]3)s2)ccn1`, the pIC50 was greater than 7.00. In the case of `N#Cc1c(-c2ccnc(N)n2)sc(C(N)=O)c1-c1ccc(Cl)cc1Cl`, the pIC50 was greater than 7.00. `C=CCOc1nc(-c2c(C)nn3ccccc23)sc1-c1nnc[nH]1` showed a pIC50 greater than 7.00. Compound `Cc1nn2ccccc2c1-c1nc(-c2ccc(CO)cc2)c(-c2nc[nH]n2)s1` has a pIC50 greater than 7.00. With `CC(=O)Nc1cc(-c2nc(-c3ccccc3C(F)(F)F)c(-c3nnc[nH]3)s2)ccn1` the pIC50 was 6.00 to 7.00. `COc1cccc(F)c1-c1nc(-c2c(C)nn3ccc(OC4CCN(C(C)=O)CC4)cc23)sc1-c1nc[nH]n1` showed a pIC50 greater than 7.00. `Cc1nn2ccccc2c1-c1nc(-c2cnn(C)c2C)c(-c2nc[nH]n2)s1` showed a pIC50 greater than 7.00. Work on `Cc1nc2ccc(Br)cn2c1-c1nc(-c2ccccc2)c(-c2nc[nH]n2)s1` yielded a pIC50 of 6.00 to 7.00. In the case of `N#Cc1c(-c2ccnc(NCCO)c2)sc(-c2nnc[nH]2)c1-c1ccc(Cl)cc1Cl`, the pIC50 was greater than 7.00. Compound `CC(=O)Nc1cc(-c2sc(-c3nnc[nH]3)c(-c3ccc(Cl)cc3Cl)c2C#N)ccn1` has a pIC50 greater than 7.00. `CCOc1nc(-c2ccnc(NC(=O)c3cccc(F)c3)c2)sc1-c1nnc[nH]1` was tested, and the pIC50 was greater than 7.00. In the case of `CCOc1nc(-c2ccnc(NC(=O)c3cc(C)on3)c2)sc1-c1nnc[nH]1`, the pIC50 was 6.00 to 7.00. For `Cc1nn2ccccc2c1-c1nc(-c2c(F)cccc2F)c(-c2nc[nH]n2)s1`, the pIC50 was greater than 7.00. Work on `Cc1nn2ccc(OCCN3CCOCC3)cc2c1-c1nc(-c2ccccc2)c(-c2nnc[nH]2)s1` yielded a pIC50 greater than 7.00. In the case of `N#Cc1c(-c2ccnc(NC(=O)c3cnccn3)c2)sc(-c2nnc[nH]2)c1-c1ccc(Cl)cc1Cl`, the pIC50 was 6.00 to 7.00. Compound `Cc1nn2ccccc2c1-c1nc(-c2ccccc2N)c(-c2nc[nH]n2)s1` has a pIC50 greater than 7.00. Work on `COc1ccc(-c2nc(-c3ccnc(NC(C)=O)c3)sc2-c2ncc[nH]2)c(Cl)c1` yielded a pIC50 greater than 7.00. `CC(=O)Nc1cc(-c2nc(-c3ccc(C(C)(C)C#N)cc3)c(-c3ncc[nH]3)s2)ccn1` showed a pIC50 of 6.00 to 7.00. `CCOc1nc(-c2c(C)nn3ccccc23)sc1-c1nnc[nH]1` gave a pIC50 greater than 7.00. With `Cc1nn2ccc(OCCN3CCC(O)CC3)cc2c1-c1nc(-c2ccccc2)c(-c2nc[nH]n2)s1` the pIC50 was greater than 7.00. In the case of `Cc1nn2ccsc2c1-c1nc(-c2ccccc2)c(-c2ccn[nH]2)s1`, the pIC50 was greater than 7.00. In the case of `CC(=O)Nc1cc(-c2sc(-c3nccn3Cc3ccccn3)c(-c3ccc(Cl)cc3Cl)c2C#N)ccn1`, the pIC50 was 6.00 to 7.00. Compound `N#Cc1c(-c2cc(N)nc(F)c2)sc(-c2nnc[nH]2)c1-c1ccc(Cl)cc1Cl` has a pIC50 of 6.00 to 7.00. In the case of `CC(=O)Nc1cc(-c2nc(-c3ccccc3Cl)c(-c3ncc[nH]3)s2)ccn1`, the pIC50 was greater than 7.00. `Cc1nn2ccccc2c1-c1nc(-c2cnn(Cc3cccnc3)c2)c(-c2nc[nH]n2)s1` gave a pIC50 of 6.00 to 7.00. `CC(=O)Nc1cc(-c2sc(-c3nnc[nH]3)c(-c3ccc(Cl)cc3Cl)c2C#N)c(F)cn1` gave a pIC50 of 6.00 to 7.00. For `CC(=O)Nc1cc(-c2nc(-c3c(C)cccc3C)c(-c3nnc[nH]3)s2)ccn1`, the pIC50 was 6.00 to 7.00. Work on `CC(=O)Nc1cc(-c2nc(-c3ccc(Cl)cc3Cl)c(-c3ncc[nH]3)s2)c(C)cn1` yielded a pIC50 of 6.00 to 7.00. In the case of `CC(=O)Nc1cc(-c2nc(NC(C)=O)c(-c3ncc[nH]3)s2)ccn1`, the pIC50 was 6.00 to 7.00. In the case of `Cc1nn2ccccc2c1-c1nc(OCc2ccccc2)c(-c2nnc[nH]2)s1`, the pIC50 was greater than 7.00. Compound `COC(=O)Nc1cc(-c2sc(-c3nnc[nH]3)c(-c3ccc(Cl)cc3Cl)c2C#N)ccn1` has a pIC50 greater than 7.00. Compound `Cc1nn2ccc(OCCN3CCCCC3)cc2c1-c1nc(-c2ccccc2F)c(-c2nc[nH]n2)s1` has a pIC50 greater than 7.00. `COc1cccc(F)c1-c1nc(-c2c(C)nn3ccc(OCCN4CCOCC4)cc23)sc1-c1nc[nH]n1` showed a pIC50 greater than 7.00. For `CC(=O)Nc1cc(-c2nc(-c3cccc(C(F)(F)F)c3)c(-c3ncc[nH]3)s2)ccn1`, the pIC50 was 6.00 to 7.00. For `CC(=O)Nc1cc(-c2nc(-c3cc4ccccc4s3)c(-c3ncc[nH]3)s2)ccn1`, the pIC50 was greater than 7.00. `N#Cc1c(-c2ccnc(NC(=O)c3cccnc3)c2)sc(-c2nnc[nH]2)c1-c1ccc(Cl)cc1Cl` showed a pIC50 of 6.00 to 7.00. For `Cc1nn2ccccc2c1-c1nc(-c2ccc(F)cc2)c(-c2nnc[nH]2)s1`, the pIC50 was greater than 7.00. In the case of `CCOc1nc(-c2ccnc(NC(=O)Cc3cccs3)c2)sc1-c1nnc[nH]1`, the pIC50 was 6.00 to 7.00. Work on `Cc1nn2ccc(OCCN3CCC(F)(F)CC3)cc2c1-c1nc(-c2ccccc2)c(-c2nc[nH]n2)s1` yielded a pIC50 greater than 7.00. With `CCOc1nc(-c2ccnc(NC(=O)Cc3ccccc3)c2)sc1-c1nnc[nH]1` the pIC50 was 6.00 to 7.00. In the case of `CC(=O)Nc1cc(-c2nc(-c3ccc(C(F)(F)F)cc3)c(-c3ncc[nH]3)s2)ccn1`, the pIC50 was greater than 7.00. With `Cc1nn2ccccc2c1-c1nc(-c2cnc3ccccc3c2)c(-c2nc[nH]n2)s1` the pIC50 was greater than 7.00. Compound `CC(=O)Nc1cc(-c2sc(-c3cnn[nH]3)c(-c3ccc(Cl)cc3Cl)c2C#N)ccn1` has a pIC50 greater than 7.00. `Cc1nn2ccc(OCCNC(=O)c3cn(C)cn3)cc2c1-c1nc(-c2ccccc2)c(-c2nc[nH]n2)s1` gave a pIC50 greater than 7.00. With `CC(=O)Nc1cc(-c2nc(-c3csc4ccccc34)c(-c3ncc[nH]3)s2)ccn1` the pIC50 was 6.00 to 7.00. With `Cc1nn2ccccc2c1-c1nc(C2CCOCC2)c(-c2nnc[nH]2)s1` the pIC50 was greater than 7.00. `Cc1ccc(-c2nc(-c3c(C)nn4ccccc34)sc2-c2nc[nH]n2)s1` showed a pIC50 greater than 7.00. `CCNc1cc(-c2nc(-c3cc(CCN)ccc3Cl)c(-c3ncc[nH]3)s2)ccn1` showed a pIC50 of 6.00 to 7.00. In the case of `CC(=O)Nc1cc(-c2sc(-c3cnc[nH]3)c(-c3ccc(Cl)cc3Cl)c2C#N)ccn1`, the pIC50 was greater than 7.00. `Cc1nc2ccc(-c3cnn(C)c3)cn2c1-c1nc(-c2ccccc2)c(-c2nc[nH]n2)s1` gave a pIC50 greater than 7.00. `CC(=O)Nc1nc2c(-c3cc(-c4ccc(Cl)cc4Cl)c(-c4ncc[nH]4)s3)ncnc2s1` showed a pIC50 of 6.00 to 7.00. `CC(=O)N1CCN(CCOc2ccn3nc(C)c(-c4nc(-c5ccccc5)c(-c5nc[nH]n5)s4)c3c2)CC1` showed a pIC50 greater than 7.00. `CC(=O)Nc1cc(-c2nc(-c3ccc(C(=O)N4CCNCC4)cc3)c(-c3ncc[nH]3)s2)ccn1` gave a pIC50 of 6.00 to 7.00. In the case of `Cc1nn2ccc(OCCCN3CCOCC3)cc2c1-c1nc(-c2ccccc2)c(-c2nc[nH]n2)s1`, the pIC50 was greater than 7.00. `N#Cc1c(-c2ccnc(NC(N)=O)c2)sc(-c2nnc[nH]2)c1-c1ccc(Cl)cc1Cl` gave a pIC50 greater than 7.00. Work on `N#Cc1c(-c2ccnc(NC(=O)CN)c2)sc(-c2nnc[nH]2)c1-c1ccc(Cl)cc1Cl` yielded a pIC50 greater than 7.00. `CC(C)(C)OC(=O)Nc1cc(-c2sc(-c3ncc[nH]3)c(-c3ccc(Cl)cc3Cl)c2C#N)ccn1` was tested, and the pIC50 was greater than 7.00. `Cc1nn2ccsc2c1-c1nc(-c2nc[nH]n2)c(-c2ccccc2)s1` showed a pIC50 of 6.00 to 7.00. With `COC(=O)Nc1cc(-c2nc(-c3ccc(Cl)cc3Cl)c(-c3ncc[nH]3)s2)ccn1` the pIC50 was greater than 7.00. For `N#Cc1c(-c2ccnc(N)c2)sc(C(N)=O)c1-c1ccc(Cl)cc1Cl`, the pIC50 was greater than 7.00. In the case of `CC(=O)Nc1cc(-c2sc(-c3nccn3Cc3ccccc3)c(-c3ccc(Cl)cc3Cl)c2C#N)ccn1`, the pIC50 was greater than 7.00. `CC(=O)Nc1cc(-c2sc(-c3nnc(Br)[nH]3)c(-c3ccc(Cl)cc3Cl)c2C#N)ccn1` was tested, and the pIC50 was greater than 7.00. `Clc1ccc(-c2cc(-c3ccnc4ccccc34)sc2-c2ncc[nH]2)c(Cl)c1` gave a pIC50 of 6.00 to 7.00. Work on `Cc1nn2ccccc2c1-c1nc(-c2ccc(NC(=O)OCc3ccccc3)cc2)c(-c2nc[nH]n2)s1` yielded a pIC50 of 6.00 to 7.00. `Cc1nn2ccsc2c1-c1nc(-c2ccccc2)c(-c2nnc[nH]2)s1` gave a pIC50 greater than 7.00. Compound `CC(=O)Nc1cc(-c2nc(-c3ccccc3)c(-c3ncc[nH]3)s2)ccn1` has a pIC50 of 6.00 to 7.00. `CC(=O)Nc1cc(-c2nc(-c3ccc(Cl)c(Cl)c3)c(-c3ncc[nH]3)s2)ccn1` showed a pIC50 greater than 7.00.
